From paper PMC9735595, “Advanced EPI-X4 Derivatives Covalently Bind Human Serum Albumin Resulting in Prolonged Plasma Stability” (International Journal of Molecular Sciences, 2022)
Ends that are not written are not given here. Peptide text beside a SMILES is read from it. * marks the point of attachment. Cam = NC(=O)C*

What was measured:
[1] = Half-life determination in plasma by mass spectrometry (LC-MS/MS); type: in vitro ADME, human; settings: 37 °C, one-phase decay; for half-life / half-life at 7 µM: both sexes, pooled K3 EDTA plasma, 3 rounds; for half-life: human plasma, LC-MS/MS of intact peptide normalized to t = 0, sample treatment for the variants not stated, read-out: half-life in human plasma, mass spectrometry, peptides without a reactive Cys-thiol; for half-life in human plasma, mass spectrometry, samples diluted with 0.1% TFA / half-life at 7 µM: 7 µM in human plasma; for half-life in human plasma, mass spectrometry, samples diluted with 0.1% TFA: aliquots diluted in 0.1% TFA only, LC-MS/MS peak area of intact free peptide, triplicate; for half-life at 7 µM: TFA samples ten-fold diluted with 50 mM NH4HCO3 + 10 mM DTT + 6M GuHCl before LC-MS/MS, read-out: half-life in human plasma, mass spectrometry, after GuHCl + DTT ("real" half-live)
Protocol: A 50 µL-aliquot of human plasma was spiked with 7 µM JM#21 or WSC02. The mixture was stirred for a few seconds and incubated at 37 °C. Five microliter aliquots were separated after 0, 5, 10, 20, 30, 45, 60, 90, and 120 min. Aliquots were immediately diluted with 1.5 mL 0.1% TFA and stored at −80 °C. The experiment was performed in triplicate. Additionally, for the measurement of denatured samples prior to MS measurement, all of the samples stored in 0.1% TFA were ten-fold diluted with 50 mM NH4HCO3 + 10 mM DTT + 6M GuHCl. A 15 uL-aliquot of every sample was used for mass spectrometry analysis as follows: samples were measured using an Orbitrap Elite Hybrid mass spectrometry system (Thermo Fisher Scientific, Bremen, Germany) online coupled to an U3000 RSLCnano (Thermo Fisher Scientific, Idstein, Germany) employing an Acclaim PepMap analytical column (75 μm × 500 mm, 2 μm, 100 Å, Thermo Fisher Scientific, Bremen, Germany) at a flow rate of 250 nL/min. Using a C18 μ-precolumn (0.3 mm × 5 mm, PepMap, Dionex LC Packings, Thermo Fisher Scientific, Bremen, Germany), samples were preconcentrated and washed with 0.1% TFA for 5 min at a flow rate of 30 μL/min. The subsequent separation was carried out using a binary solvent gradient consisting of solvent A (0.1% FA) and solvent B (86% ACN, 0.1% FA). The column was initially equilibrated in 5% B. In the first elution step, the percentage of B was raised from 5 to 15% in 5 min, followed by an increase from 15 to 40% B in 30 min. The column was washed with 95% B for 4 min and re-equilibrated with 5% B for 19 min. The mass spectrometer was equipped with a nanoelectrospray ion source and distal-coated SilicaTips (FS360-20-10-D, New Objective, Woburn, MA, USA). The instrument was externally calibrated using standard compounds (LTQ Velos ESI Positive Ion Calibration Solution, Pierce, Thermo Scientific, Rockford, IL, USA). The system was operated using the following parameters: spray voltage, 1.5 kV; capillary temperature, 250 °C; S-lens RF level, 68.9%. XCalibur 2.2 SP1.48 (Thermo Fisher Scientific, Bremen, Germany) was used for data-dependent tandem mass spectrometry (MS/MS) analyses. Full scans ranging from m/z 370 to 1700 were acquired in the Orbitrap at a resolution of 30,000 (at m/z 400) with automatic gain control (AGC) enabled and set to 106 ions and a maximum fill time of 500 ms. Up to 20 multiply-charged peptide ions were selected from each survey scan for collision-induced fragmentation (CID) in the linear ion trap using AGC set to 10,000 ions and a maximum fill time of 100 ms. For MS/MS fragmentation, normalized collision energy of 35% with an activation q of 0.25 and an activation time of 30 ms was used.
For visualization in the XCalibur Qual Browser 2.0 (Thermo Fisher Scientific, Bremen, Germany), extracted ion xhromatograms (XICs) of the most intense isotope (±20 ppm), as theoretically predicted, at z = 3 or z = 4 were calculated. Using default parameters within the QualBrowser, peak areas were calculated and exported. Half-lives were determined by fitting the data (peak area vs. time) to a one-phase exponential decay model using GraphPad Prism 8.4.3 (GraphPad Prism Software LLC, San Diego, CA, USA).
(§1) The influence of several reagents on peptide detection was tested with aliquots separated (peptide + plasma, 300-fold diluted in 0.1%TFA) at t = 10 min. The aliquots were analyzed by LC-MS/MS, as previously described, after 10-fold dilution in 0.1% TFA, 6M GuHCl, 50 mM NH4HCO3 + 10 mM DTT, and 50 mM NH4HCO3 + 10 mM DTT + 6M GuHCl, respectively.
(§2) SupT1 cells were cultured in RPMI supplemented with 10% FCS, 100 units/mL penicillin, 100 µg/mL streptomycin, 2 mM L-glutamine, and 1 mM HEPES (Gibco). Blood was collected from healthy donors (male and female, average age 28 years) using S-Monovettes K3 EDTA (Sarstedt). Plasma was obtained by centrifugation of whole blood at 2.500× g for 15 min. Plasma of 6 donors was pooled and stored at −80 °C.

[2] = Functional plasma stability assay (remaining activity in CXCR4 antibody competition after incubation in plasma); type: in vitro ADME, human; settings: 37 °C; for half-life in human plasma, functional assay: 20 µM in 100% pooled human K3 EDTA plasma (6 donors), aliquots serially diluted in cold PBS, 12G5-APC competition on SupT1 cells, 2 h at 4 °C, flow cytometry, activity = IC50(t)/IC50(t=0) x 100, one-phase decay, 3 rounds of plasma incubation
Protocol: For the functional assay, WSC02 (a) or JM#21 (b) were spiked into human plasma and incubated at 37 °C. At indicated time points, aliquots were taken and serially diluted in cold PBS. […] After 2 h, unbound antibody was removed, and cells were analyzed by flow cytometry. Remaining activity was determined described before. For detection by mass spectrometry, WSC02 (a) or JM#21 (b) were spiked into plasma and incubated at 37 °C. and analyzed in LC-MS/MS. Half-lives were calculated using a one-phase decay model in GraphPad Prism. Curve fits are shown as dashed lines. Data shown are derived from 3 individual rounds of plasma incubation ± SEM.
as §2
Competition of compounds with an APC-labeled antibody specific for ECL2 of CXCR4 (clone 12G5) was performed in SupT1 cells as described. For this, cells (without buffer) were precooled at 4 °C and a serial dilution of compounds in PBS together with a constant concentration of antibody diluted in buffer (PBS with 1% FCS) was added. After 2 h at 4 °C, unbound antibody was removed and cells analyzed in flow cytometry (CytoFLEX, Beckman Coulter). Mean fluorescence signals (MFI) in the presence of PBS only was set 100%. Isotype control was set 0%. Half-maximal inhibitory concentrations (IC50) were calculated in GraphPad Prism by nonlinear regression.
Decrease in CXCR4-binding activity after incubation of compounds in human plasma was determined to calculate functional stability as described (Harms et al. 2020). For this purpose, the peptides were dissolved at a concentration of 20 µM in 100% plasma. The first aliquot (t = 0) was immediately taken and stored at −80 °C. Aliquots were taken at given time points and also stored. To determine CXCR4 binding, all aliquots were thawed together and serially diluted in ice-cold PBS and subsequently, antibody competition was performed as described before. IC50 at t = 0 defined as 100% activity and decrease in activity was calculated by IC50 (t)/IC50 (t = 0) × 100. Half-lives were determined by one-phase decay using GraphPad Prism.

[3] = molecular target: T1, human serum albumin (HSA) (Homo sapiens, UniProt P02768); test: Interaction with plasma components: size-exclusion fractionation and tryptic digestion of spiked plasma, LC-MS/MS; type: in vitro ADME; settings: plasma spiked with peptide, 37 °C, 10 min; SEC fractions treated with DTT + GuHCl; tryptic digest LC-MSMS
T1 construct: from tissue; host or cells: human plasma
T1 sequence (P02768 25-609): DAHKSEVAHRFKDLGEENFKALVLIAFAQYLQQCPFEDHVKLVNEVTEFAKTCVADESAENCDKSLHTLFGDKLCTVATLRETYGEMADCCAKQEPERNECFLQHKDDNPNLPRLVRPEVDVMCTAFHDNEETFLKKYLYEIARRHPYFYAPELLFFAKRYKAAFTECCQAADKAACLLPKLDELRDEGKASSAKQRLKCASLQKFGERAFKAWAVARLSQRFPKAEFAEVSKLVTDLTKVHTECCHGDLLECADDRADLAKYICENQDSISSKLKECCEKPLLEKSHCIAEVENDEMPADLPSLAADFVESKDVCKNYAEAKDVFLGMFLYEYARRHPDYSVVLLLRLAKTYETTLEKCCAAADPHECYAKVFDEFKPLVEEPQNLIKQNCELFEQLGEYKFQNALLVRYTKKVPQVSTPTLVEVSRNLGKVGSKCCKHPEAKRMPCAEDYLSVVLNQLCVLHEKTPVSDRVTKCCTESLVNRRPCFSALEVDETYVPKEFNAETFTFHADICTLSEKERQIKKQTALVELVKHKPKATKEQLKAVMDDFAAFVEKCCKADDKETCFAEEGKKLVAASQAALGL
Protocol: as §1
A 5 µL aliquot of the peptides in plasma, after incubation at 37 °C for 10 min, was injected into a size-exclusion column Yarra SEC-2000 (Phenomenex, CA, USA) of dimensions 7.8 × 300 mm, 3 µm particle size. The separation was done at a flow rate of 0.5 mL/min using a buffer composed of 25 mM NaH2PO4 + 25 mM Na2HPO4 + 250 mM KCl (pH 6.65). Fractions were collected every one minute, and then analyzed by mass spectrometry in denaturing conditions (1/10 in 50 mM NH4HCO3 + 10 mM DTT + 6M GuHCl) as previously described.
A 5 µL aliquot of plasma spiked with WSC02 or JM#21 was mixed with trypsin (50:1) and incubated at 37 degrees for 16 h. Half of the digested sample was reduced and carbamidomethylated, as described above. The digested samples, both unmodified and carbamidomethylated, were analyzed by mass spectrometry, as previously described in this section.

CXCR4 = settings: cited from earlier work
Excerpt: In addition, both peptides contain a cystein ...

[4] = human plasma, 30 min, antibody competition read-out, 3 rounds
[5] = human plasma, antibody competition read-out, 3 rounds

**Q.** With IVRWSKKVPSVS [WSC02 C10S] as the compound, how does the half-life [1] read?
**A.** 4 min

**Q.** What about the “half-life in human plasma, functional assay” value (“half-life … functional assay” for short) [2] of the same compound?
**A.** 7 min

**Q.** What about the “activity reduced by (loss of activity) after 30 min in plasma” value [2, 4] of the same compound?
**A.** 92%

**Q.** For `CC[C@H](C)[C@H](N)C(=O)N[C@@H](CC(C)C)C(=O)N[C@@H](CCCNC(=N)N)C(=O)N[C@@H](Cc1c[nH]c2ccccc12)C(=O)N[C@@H](CO)C(=O)N[C@@H](CCCNC(=N)N)C(=O)N[C@@H](CCCCN)C(=O)N[C@@H](CC(C)C)C(=O)N1CCC[C@H]1C(=O)N[C@@H](CSCC(N)=O)C(=O)N[C@H](C(=O)N[C@@H](CO)C(=O)O)C(C)C` [JM#21 Cdm], which half-life [1] is on record?
**A.** 3 min

**Q.** And the “half-life … functional assay” value [2]?
**A.** 3 min

**Q.** What about the “activity decreased by (loss of activity) after 15 min in plasma” value (shortened to “activity decreased by (loss of activity)”) [2, 5] of the same compound?
**A.** 95%

**Q.** For `CC[C@H](C)[C@H](N)C(=O)N[C@H](C(=O)N[C@@H](CCCNC(=N)N)C(=O)N[C@@H](Cc1c[nH]c2ccccc12)C(=O)N[C@@H](CO)C(=O)N[C@@H](CCCCN)C(=O)N[C@@H](CCCCN)C(=O)N[C@H](C(=O)N1CCC[C@H]1C(=O)N[C@@H](CSCC(N)=O)C(=O)N[C@H](C(=O)N[C@@H](CO)C(=O)O)C(C)C)C(C)C)C(C)C` [WSC02 Cdm] (H-IVRWSKKVPC(Cam)VS-OH), which half-life [1] is on record?
**A.** 5 min

**Q.** And the “half-life … functional assay” value [2]?
**A.** 6 min

**Q.** What about the “activity reduced by (loss of activity) after 30 min in plasma” value [2, 4] of the same compound?
**A.** 93%

**Q.** Which “interaction with human serum albumin in plasma (in words)” value [3] does the source give for IVRWSKKVPCVS [EPI-X4 WSC02] here?
**A.** forming a disulfide bridge with a free thiol group (Cys34) on HSA

**Q.** And the “half-life in human plasma, mass spectrometry, samples diluted with 0.1% TFA” value [1]?
**A.** 0.7 min

**Q.** What about the half-life at 7 µM [1] of the same compound?
**A.** 6 min

**Q.** What about the “half-life … functional assay” value [2] of the same compound?
**A.** 9 min

**Q.** And the “half-life … functional assay” value ([2]; listed as WSC02)?
**A.** about 9 min

**Q.** What about the “remaining activity after 60 min in plasma” value ([2]; human plasma, 60 min, antibody competition read-out, 3 rounds) of the same compound?
**A.** 20%

**Q.** With ILRWSRKLPSVS [JM#21 C10S] as the compound, how does the half-life [1] read?
**A.** 4 min

**Q.** And the “half-life … functional assay” value [2]?
**A.** 4 min

**Q.** What about the “activity decreased by (loss of activity)” value [2, 5] of the same compound?
**A.** 91%

**Q.** With `CC[C@H](C)[C@H](N)C(=O)N[C@@H](CC(C)C)C(=O)N[C@@H](CCCNC(=N)N)C(=O)N[C@@H](Cc1c[nH]c2ccccc12)C(=O)N[C@@H](CO)C(=O)N[C@@H](CCCNC(=N)N)C(=O)N[C@@H](CCCCN)C(=O)N[C@@H](CC(C)C)C(=O)N1CCC[C@H]1C(=O)N[C@@H](CS)C(=O)N[C@H](C(=O)N[C@@H](CO)C(=O)O)C(C)C` [EPI-X4 JM#21] as the compound, how does the “interaction with human serum albumin in plasma (in words)” value [3] read?
**A.** forming a disulfide bridge with a free thiol group (Cys34) on HSA

**Q.** What about the “half-life in human plasma, mass spectrometry, samples diluted with 0.1% TFA” value [1] of the same compound?
**A.** 1.7 min

**Q.** What about the half-life at 7 µM [1] of the same compound?
**A.** 5 min

**Q.** What about the “higher antagonistic activity as compared with EPI-X4” value (CXCR4) of the same compound?
**A.** ~300 fold

**Q.** And the “half-life … functional assay” value [2]?
**A.** 6 min

**Q.** And the “half-life … functional assay” value ([2]; listed as JM#21)?
**A.** ~6 min

**Q.** What about the “activity decreased by (loss of activity)” value [2, 5] of the same compound?
**A.** 69%

**Q.** And the “remaining activity after 30 min in plasma” value [2, 4]?
**A.** 10%
